From PMC8830175, “Bex1 is essential for ciliogenesis and harbours biomolecular condensate-forming capacity” (BMC Biology, 2022)

Molecular target: T1, Bex1 (recombinant Bex1 protein) (Mus musculus, UniProt Q9R224)
T1 construct: N-terminal hexahistidine tag (pETDuet-1), expressed in E. coli Rosetta-gami 2(DE3)pLysS, non-denaturing Ni-NTA purification, 15N-labelled; tag removal not mentioned
T1 sequence (Q9R224 1-128): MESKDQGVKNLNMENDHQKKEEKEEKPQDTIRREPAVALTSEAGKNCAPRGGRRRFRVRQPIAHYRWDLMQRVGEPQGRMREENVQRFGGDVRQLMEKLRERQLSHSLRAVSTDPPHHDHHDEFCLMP
Assay: 2D 1H-15N HSQC NMR titration (chemical shift perturbation)
Format: binding
From the text: 2D 1H-15N HSQC NMR titration (chemical shift perturbation) on Bex1 (recombinant Bex1 protein) | The peak shift of Bex1 was GTP concentration-dependent with the dissociation constant (Kd) equal to […]

**Q.** With Nc1nc2c(ncn2[C@@H]2O[C@H](COP(=O)(O)OP(=O)(O)OP(=O)(O)O)[C@@H](O)[C@H]2O)c(=O)[nH]1 [GTP] as the molecule, how does the Kd read?
**A.** The Kd was 244 ± 98 µM.
